In patent US20220087987A1, “A METHOD FOR TREATING SWI/SNF COMPLEX-DEFICIENT CANCERS COMPRISING GLUTATHIONE (GSH) METABOLIC PATHWAY INHIBITOR” (National Cancer Center, priority 2018, published 2022):

Assays:
[1] = tested on: ARID1A-WT and ARID1A-KO HCT116 cells; experiment: Cell viability and colony formation assays; type: cell-based, human; conditions: cell viability 5 days, colony formation 10 days
Protocol: Cell viability was examined by measuring the cellular ATP level using the CellTiter-Glo Luminescent Cell Viability Assay (Promega). To measure cell viability after siRNA-mediated knockdown, cell lines were transfected with siRNAs (25 nM) using Lipofectamine RNAiMAX. After 48 hrs, cells were trypsinized and repeatedly transfected with siRNAs (25 nM) using Lipofectamine RNAiMAX. Cells were trypsinized after a further 48 hrs, counted, and reseeded at the specified density in 96-well plates. To measure cell viability after drug treatment, cells were trypsinized, counted, reseeded at the specified density in 96-well plates, and exposed to the indicated concentrations of drugs. Cell viability was measured using the CellTiter-Glo Luminescent Cell Viability Assay. Luminescence was measured using an Envision Multi-label plate reader (PerkinElmer).
The effect of drug treatment on cancer cell survival was evaluated in a colony formation assay. Cells were trypsinized, counted, reseeded at the specified density in 12-well plates, exposed to the indicated concentrations of drugs for 10-14 days, and fixed for 10 min in 50% (v/v) methanol containing 0.01% (w/v) crystal violet. Images were taken on LAS-3000 Imaging System (Fujifilm) and colonies were counted using Multi Gauge software.

[2] = tested on: p53, p21; experiment: Immunoblot for p53 and p21; type: cell-based, human; conditions: ARID1A-WT and ARID1A-KO HCT116; 50 μM PRIMA-1, 50 μM APR-246, 10 μM Nutlin3a, 16 hrs
Protocol: The soluble fractions of whole-cell lysates were mixed with SDS sample buffer. […] The soluble fractions were mixed with SDS sample buffer. Tumor samples derived from xenografts were weighed and washed with PBS. […] The homogenized tumor samples were diluted in an additional 450 μl of NETN420 buffer, incubated for 30 min on ice, and centrifuged at 4° C. for 10 min at 15,000 rpm. The soluble fractions of whole-cell lysates were mixed with SDS sample buffer. Proteins were separated by SDS-PAGE, transferred to PVDF membranes, and immunoblotted with the indicated antibodies. β-actin was used as a loading control. Membranes were blocked overnight at 4° C. or for 1 hr at 25° C. with PVDF Blocking Reagent for Can Get Signal (TOYOBO) and then probed with Can Get Signal Solution 1 (TOYOBO) containing primary antibodies. After washing with TBS containing 0.1% Tween 20, the membranes were incubated with TBS containing 0.1% Tween 20, 1% BSA, and horseradish peroxidase-conjugated anti-mouse or anti-rabbit secondary antibodies, and visualized using Western Lightning ECL Pro (Perkin Elmer). Chemiluminescence signals were measured using LAS-3000 Imaging System (Fujifilm). Signal intensities were measured using Multi Gauge software.

[3] = tested on: ARID1A-deficient OVISE OCCC xenografts; experiment: Mouse xenograft model, OVISE; type: in vivo, mice; conditions: PRIMA-1 25 mg/kg
Protocol: All mouse experiments were approved by the National Cancer Center (NCC) animal Ethical Committee. Cells were counted and re-suspended in a 1:1 mixture of 100 μl culture medium and 100 μl Matrigel (BD Biosciences) on ice. Thereafter, cells (RMG-I: 2×10^6 cells/mouse; TOV21G: 2×10^5 cells/mouse for ARP-246 treatment and 1×10^6 cells/mouse for BSO treatment; OVISE: 2×10^6 cells/mouse; TOV21G-shNT: 2×10^5 cells/mouse; and TOV21G-shGCLC: 2×10^5 cells/mouse) were injected subcutaneously into the flank of 6-week-old female BALB/c-nu/nu mice (CLEA and Charles River). In the subcutaneous model, once the tumors were palpable (about 3-14 days after implantation), mice were randomly divided into two groups. In the drug treatment group, mice were injected intraperitoneally with either PBS or compounds [APR-246 (50 mg/kg), PRIMA-1 (25 mg/kg), or BSO (750 mg/kg)] once daily for 12-14 days. In the doxycycline (Dox) treatment study, TOV21G-shNT cells and TOV21G-shGCLC cells were injected into the flanks of 6-week-old female BALB/c-nu/nu mice. […] Tumor growth was measured every several days using calipers. The volume of implanted tumors was calculated using the formula V=L×W2/2, where V is volume (mm^3), L is the largest diameter (mm), and W is the smallest diameter (mm). […]

[4] = tested on: ARID1A-WT HCT116 cells; experiment: Drug library screen, cell viability (CellTiter-Glo); type: cell-based, human; set-up: key to Cell viability, WT: % viability relative to DMSO solvent-treated cells; conditions: HCT116 ARID1A-WT; 10 μM for 5 days; relative to cells treated with solvent (DMSO)
Procedure, shortened: (§1)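 Luminescent ATP read-out (CellTiter-Glo) at day 5, normalised to solvent (DMSO) controls, in paired HCT116 lines, ARID1A knockout versus wild type. Candidates selected where KO cells fell below 40% viability and WT cells stayed above 80%.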

[5] = tested on: ARID1A-KO HCT116 cells; experiment: as above; type: cell-based, human; set-up: key to Cell viability, KO: % viability relative to DMSO solvent-treated cells; conditions: HCT116 ARID1A-KO; 10 μM for 5 days; relative to cells treated with solvent (DMSO)
Procedure, shortened: as §1

O=C1C2CCN(CC2)C1(CO)CO [PRIMA-1]
growth / survival of ARID1A-KO versus ARID1A-WT cells [1]: reproducibly suppressed the growth of ARID1A-KO cells but not ARID1A-WT cells
expression of p53 and p21 [2]: did not markedly affect expression of p53 or p21
body weight of mice [3]: without causing significant weight loss
growth of xenografts (tumor volume) [3]: significantly suppressed the growth
Cell viability, WT [4]: 84.25
Cell viability, KO [5]: 12.95
